This passage reports Ki, Emax and EC50 results from patent publication US10030027B2, “Soluble guanylate cyclase stimulators” (MERCK SHARP & DOHME CORP., priority 2015, dated 2018).

Test [1] has as its target human recombinant sGC enzyme (Homo sapiens (Human), UniProt Q02108+Q02153). Put plainly: Size Exclusion Chromatography (SEC) competition binding assay using [3H] Ex-77B as the radioligand. The following applies: [3H] Ex-77B radioligand, 24 hours at 37° C. The method, boiled down: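 Recombinant human sGC binding measured by competition against tritiated Ex-77B radioligand, with non-specific binding defined by 1 μM unlabeled Ex-77B.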

In test [2] the target is sGC α1/β1 heterodimer (Homo sapiens (Human), UniProt Q02108+Q02153). In words: Cell-based sGC functional assay (cyclic GMP assay for sGC activator: CASA assay). The following applies: CHO-K1/sGC cells; for Emax: CHO-K1, activity expressed as percentage of compound A (standard), read-out: % Activation; for EC50: inflection point, 4P fit, read-out: IP. Summed up: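 CHO-K1 cells stably expressing human sGC α1/β1 were pre-incubated 30 min at 25° C with or without 1 μM DETA-NO, then exposed to compound for 1 hr at 37° C with 0.5 mM IBMX and 2.5% DMSO final. Intracellular cGMP was measured by HTRF, expressed as % of reference sGC-HDA maximum; inflection point and maximum fold induction came from 4-parameter fits.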

Broadly, the Ki is the equilibrium dissociation constant of an inhibitor or competing ligand from its target. Consider `CC(C)(Cc1ccc(C2(C)C(=O)Nc3nc(-c4nn(CCCC(F)(F)F)c5ncccc45)nc(N)c32)cc1)C(=O)O` (stereo not drawn) [Example 16B, 3-(4-{4-amino-5-methyl-6-oxo-2-[1-(4,4,4-trifluorobutyl)-1H-pyrazolo[3,4-b]pyridin-3-yl]-6,7-dihydro-5H-pyrrolo[2,3-d]pyrimidin-5-yl}phenyl)-2,2-dimethylpropanoic acid], for which the inhibition constant Ki in test [1] was found to be 1.14 nM. Also, in test [2], the Emax is 96% and the EC50 was 1470 nM.

In the case of `Cc1cccc(Cn2nc(-c3nc(N)c4c(n3)NC(=O)C4(C)c3nc(CC(C)(C)C(=O)O)co3)c3ccccc32)c1` (stereo not drawn) [Example 226A, 3-(2-{4-amino-5-methyl-2-[1-(3-methylbenzyl)-1H-indazol-3-yl]-6-oxo-6,7-dihydro-5H-pyrrolo[2,3-d]pyrimidin-5-yl}-1,3-oxazol-4-yl)-2,2-dimethyl-propanoic acid], the inhibition constant (Ki) in test [1] is 0.176 nM. Further, in test [2], the Emax is 112% and the EC50 stood at 355 nM.

As to `CC1CCC(Cn2nc(-c3nc(N)c4c(n3)NC(=O)[C@@]4(C)c3nc(CC(C)(C)C(=O)O)cs3)c3cccnc32)CC1` (single isomer, unassigned) [Example 125AB], the inhibitory constant (Ki) in test [1] was found to be 0.336 nM. For the same compound, in test [2], the Emax stood at 138% and the EC50 came to 56 nM.

For the compound `Cc1ccc(F)c(Cn2nc(-c3nc(N)c4c(n3)NC(=O)C4(C)c3nc(CC(C)(C)C(=O)O)co3)c3ccc(Cl)cc32)c1` (stereo not drawn) [Example 213A, 3-(2-{4-amino-2-[6-chloro-1-(2-fluoro-5-methyl-benzyl)-1H-indazol-3-yl]-5-methyl-6-oxo-6,7-dihydro-5H-pyrrolo[2,3-d]pyrimidin-5-yl} 1,3-oxazol-4-yl)-2,2-dimethyl-propanoic acid], in test [1], the Ki stood at 0.123 nM. Besides, in test [2], the Emax was found to be 94.9% and the EC50 was determined as 839 nM.

On to `CC(C)(CCc1coc(C2(C)C(=O)Nc3nc(-c4nn(Cc5cccc(F)c5)c5cc(Cl)ccc45)nc(N)c32)n1)C(=O)O` (stereo not drawn) [Example 177B, 4-(2-{4-amino-2-[6-chloro-1-(3-fluorobenzyl)-1H-indazol-3-yl]-5-methyl-6-oxo-6,7-dihydro-5H-pyrrolo[2,3-d]pyrimidin-5-yl}-1,3-oxazol-4-yl)-2,2-dimethyl-butanoic acid], for which the inhibition constant (Ki) in test [1] worked out at 0.118 nM. In addition, in test [2], the Emax was determined as 126% and the EC50 was determined as 351 nM.

Regarding `C[C@@]1(c2ccc(CCC(=O)O)cc2)C(=O)Nc2nc(-c3nn(Cc4ncccc4F)c4ccccc34)nc(N)c21` [Example 232B, (S)-3-{4-[4-amino-2-{1-[(3-fluoropyridin-2-yl)methyl]-1H-indazol-3-yl}-5-methyl-6-oxo-6,7-dihydro-5H-pyrrolo[2,3-d]pyrimidin-5-yl]phenyl}propanoic acid], the inhibitory constant (Ki) in test [1] was found to be 0.085 nM. Further, in test [2], the Emax was 89.1% and the EC50 is 4150 nM.

In the case of `C[C@@]1(c2ccc(CCC(=O)O)cc2)C(=O)Nc2nc(-c3nn(CCCC(F)(F)F)c4cc(Cl)ccc34)nc(N)c21` [Example 41B, (S)-3-(4-{4-amino-2-[6-chloro-1-(4,4,4-trifluorobutyl)-1H-indazol-3-yl]-5-methyl-6-oxo-6,7-dihydro-5H-pyrrolo[2,3-d]pyrimidin-5-yl}phenyl)propanoic acid], the inhibitory constant (Ki) in test [1] is 0.717 nM. In test [2], the Emax turned out to be 85% and the EC50 came to 779 nM.

For `CC1(c2cn(CC(=O)O)nn2)C(=O)Nc2nc(-c3nn(CCC(F)(F)C(F)(F)F)c4cc(Cl)ccc34)nc(N)c21` (stereo not drawn) [Example 28B, (4-{4-amino-2-[6-chloro-1-(3,3,4,4,4-pentafluorobutyl)-1H-indazol-3-yl]-5-methyl-6-oxo-6,7-dihydro-5H-pyrrolo[2,3-d]pyrimidin-5-yl}-1H-1,2,3-triazol-1-yl)acetic acid], the inhibition constant (Ki) in test [1] came out at 0.536 nM. Besides, in test [2], the Emax is 105% and the EC50 came to 2170 nM.

As for `C[C@@]1(c2ccc(CCC(=O)O)cc2)C(=O)Nc2nc(-c3nn(Cc4c(F)cccc4F)c4cc(Cl)ccc34)nc(N)c21` (single isomer, unassigned) [Example 64B], in test [1], the Ki amounted to 0.075 nM. Moreover, in test [2], the Emax is 101% and the EC50 came to 302 nM.
